Laboratory results from ChEMBL document CHEMBL5614396, “Structure-Activity Relationship Studies in Benzothiadiazoles as Novel Vaccine Adjuvants” (J Med Chem, 2024).
The source made the active and inactive calls. No cut-off for these calls is given here.

What was measured:
Mus musculus [1] = assay: Vaccine adjuvant activity against ovalbumin-immunized BALB/c mouse assessed as increase in anti-OVA specific IgG titer in serum at 200 nmol, im co-administered with ovalbumin on day 0 and day 21 and measured on day 28 by ELISA; assay type: functional, organism-based; settings: time 29.0 day
THP-1 = assay: Vaccine adjuvant activity in human THP-1 cells expressing CD63-Turbo-luciferase and CD9-Emerald green fluorescent protein reporter assessed as extracellular vesicle release by measuring reporter activation at 10 uM incubated for 48 hrs by TurboLuc luciferase based chemiluminescence assay (reference value: 0%); assay type: functional
BMDC [2] = assay: Vaccine adjuvant activity in Balb/c mouse BMDC assessed as induction of Ca2+ influx at 10 uM by Fura-2/8-AM dye based fluorescence analysis (reference value: 0%); assay type: functional
BMDC [3] = assay: Vaccine adjuvant activity in Balb/c mouse BMDC assessed as increase in IL-12 production at 10 uM incubated for 20 hrs by ELISA (reference value: 1.35 +/-0.1 ng/ml); assay type: functional
[4] = Cytotoxicity against Balb/c mouse BMDC assessed as cell viability at 10 uM incubated for 20 hrs by MTT assay (reference value: 100 +/-0.6%); assay type: toxicity, cell-based; settings: BMDC (bone marrow-derived dendritic cells), read-out: Activity
Mus musculus [5] = assay: Immunostimulatory activity in BALB/c mouse assessed as increase in serum CXCL-1 level at 200 nmol, im and measured after 2 to 6 hrs by ELISA; assay type: functional, organism-based; settings: time 2-6 hrs
Mus musculus [6] = assay: Immunostimulatory activity in BALB/c mouse assessed as increase in serum CXCL-1 level at 200 nmol, im and measured after 24 hrs by ELISA; assay type: functional, organism-based
[7] = Toxicity in ovalbumin-immunized BALB/c mouse assessed as weight loss at 200 nmol, im co-administered with ovalbumin on day 0 and day 21; assay type: organism-based; settings: in vivo, 528 h, time 22 day
[8] = Toxicity in ovalbumin-immunized BALB/c mouse assessed as behavioural changes at 200 nmol, im co-administered with ovalbumin on day 0 and day 21; assay type: organism-based; settings: in vivo, 528 h, time 22 day
Mus musculus [9] = assay: Vaccine adjuvant activity against ovalbumin-immunized BALB/c mouse assessed as induction of antigen-specific Th2 immune responses by measuring increase in anti-OVA specific IgG1 titer in serum at 200 nmol, im co-administered with ovalbumin on day 0 and day 21 and measured on day 28 by ELISA; assay type: functional, organism-based; settings: time 29.0 day
Mus musculus [10] = assay: Immunostimulatory activity in BALB/c mouse assessed as increase in serum CCL-4 level at 1 ug, im and measured after 2 hrs by multiplex Luminex beads assay; assay type: functional, organism-based; settings: dose 1.0 µg
Mus musculus [11] = assay: Immunostimulatory activity in BALB/c mouse assessed as increase in serum CCL-2 level at 1 ug, im and measured after 2 hrs by multiplex Luminex beads assay; assay type: functional, organism-based; settings: dose 1.0 µg
Mus musculus [12] = assay: Immunostimulatory activity in BALB/c mouse assessed as increase in serum IL-6 level at 1 ug, im and measured after 2 hrs by multiplex Luminex beads assay; assay type: functional, organism-based; settings: dose 1.0 µg
Mus musculus [13] = assay: Immunostimulatory activity in BALB/c mouse assessed as increase in serum CXCL-1 level at 1 ug, im and measured after 2 hrs by ELISA; assay type: functional, organism-based; settings: dose 1.0 µg
Mus musculus [14] = assay: Immunostimulatory activity in BALB/c mouse assessed as increase in serum CXCL-10 level at 1 ug, im and measured after 6 hrs by multiplex Luminex beads assay; assay type: functional, organism-based; settings: dose 1.0 µg
Mus musculus [15] = assay: Immunostimulatory activity in BALB/c mouse assessed as increase in serum CCL-4 level at 1 ug, im and measured after 24 hrs by multiplex Luminex beads assay; assay type: functional, organism-based; settings: dose 1.0 µg
Mus musculus [16] = assay: Immunostimulatory activity in BALB/c mouse assessed as increase in serum CCL-2 level at 1 ug, im and measured after 24 hrs by multiplex Luminex beads assay; assay type: functional, organism-based; settings: dose 1.0 µg
Mus musculus [17] = assay: Immunostimulatory activity in BALB/c mouse assessed as increase in serum IL-6 level at 1 ug, im and measured after 24 hrs by multiplex Luminex beads assay; assay type: functional, organism-based; settings: dose 1.0 µg
Mus musculus [18] = assay: Immunostimulatory activity in BALB/c mouse assessed as increase in serum CXCL-1 level at 1 ug, im and measured after 24 hrs by ELISA; assay type: functional, organism-based; settings: dose 1.0 µg

Structure (SMILES)	Activity (Mus musculus [1])	Activity (THP-1) [%]	Activity (BMDC [2]) [%]	Activity (BMDC [3]) [ng/mL]	viability at 20 h, 10 µM [4] [%]	Activity (Mus musculus [5])	Activity (Mus musculus [6])	Activity [7]	Activity [8]	Activity (Mus musculus [9])	Activity (Mus musculus [10])	Activity (Mus musculus [11])	Activity (Mus musculus [12])	Activity (Mus musculus [13])	Activity (Mus musculus [14])	Activity (Mus musculus [15])	Activity (Mus musculus [16])	Activity (Mus musculus [17])	Activity (Mus musculus [18])
CCOC(=O)c1c(NS(=O)(=O)c2cccc3nsnc23)sc(C)c1C	Active	100	100	1.78	114	Active	inactive	Non-Toxic	Non-Toxic	–	–	–	–	–	–	–	–	–	–
CCOC(=O)c1c(NS(=O)(=O)c2cccc3nsnc23)sc(-c2ccccc2)c1C	Active	338.9	115.7	3.79	136	Active	inactive	Non-Toxic	Non-Toxic	Active	–	–	–	–	–	–	–	–	–
CCOC(=O)c1c(NS(=O)(=O)c2cccc3nccnc23)sc(C)c1C	Active	113.3	122	4.12	181	–	–	Non-Toxic	Non-Toxic	Active	–	–	–	–	–	–	–	–	–
CCOC(=O)c1c(NS(=O)(=O)c2ccccc2)sc(C)c1C	inactive	0.7	-10.9	1.16	102	–	–	–	–	–	–	–	–	–	–	–	–	–	–
Cc1sc(NS(=O)(=O)c2cccc3nsnc23)c(-c2nc(C#N)no2)c1C	inactive	1.5	-7	1.59	97.6	–	–	Non-Toxic	Non-Toxic	–	–	–	–	–	–	–	–	–	–
CCOC(=O)c1c(NS(=O)(=O)c2cccc3ccccc23)sc(C)c1C	–	5.2	-14.1	1.37	111	–	–	Non-Toxic	Non-Toxic	–	–	–	–	–	–	–	–	–	–
CCOC(=O)c1c(NC(=O)c2cccc3nsnc23)sc(C)c1C	–	-0.4	-5.4	1.37	59.1	Active	inactive	–	–	–	–	–	–	–	–	–	–	–	–
Cc1sc(NS(=O)(=O)c2cccc3nsnc23)c(C(=O)OC2CCCCC2)c1C	Active	213	177.8	3.08	102	Active	inactive	Non-Toxic	Non-Toxic	Active	–	–	–	–	–	–	–	–	–
CCOC(=O)c1c(NS(=O)(=O)c2cccc3n[se]nc23)sc(C)c1C	Active	210.4	147.5	3.11	109	–	–	Non-Toxic	Non-Toxic	Active	–	–	–	–	–	–	–	–	–
CCCCCCCCCCCCCC(=O)O[C@H](CCCCCCCCCCC)CC(=O)N[C@H]1[C@H](OC[C@H]2O[C@H](O)[C@H](NC(=O)C[C@H](O)CCCCCCCCCCC)[C@@H](OC(=O)C[C@H](O)CCCCCCCCCCC)[C@@H]2O)O[C@H](CO)[C@@H](OP(=O)(O)O)[C@@H]1OC(=O)C[C@@H](CCCCCCCCCCC)OC(=O)CCCCCCCCCCCCC	–	–	–	–	–	–	–	–	–	–	Active	Active	Active	Active	Active	inactive	inactive	inactive	inactive
CCOC(=O)c1c(NS(=O)(=O)c2cccc3nsnc23)sc(C)c1-c1ccccc1	–	49.6	69.1	1.45	94.2	–	–	–	–	–	–	–	–	–	–	–	–	–	–
